Reference: US20110092476A1, “Bicycloheteroaryl compounds as P2X7 modulators and uses thereof” (Renovis, Inc., priority 2006, published 2011)

Each compound was assayed against T1, P2X7 receptor (Homo sapiens, UniProt Q99572) (assay: IL-1β release assay in differentiated THP-1 cells stimulated with BzATP (Example 9)). Conditions: 0.3 μM compound; differentiated THP-1 cells, BzATP 250 uM; "+" symbols; read-out: IL-1β % Inhib. @ 0.3 or 0.1 uM.
T1 construct: host or cells: THP-1 cells differentiated with LPS and IFN-γ
T1 sequence (Q99572 1-595): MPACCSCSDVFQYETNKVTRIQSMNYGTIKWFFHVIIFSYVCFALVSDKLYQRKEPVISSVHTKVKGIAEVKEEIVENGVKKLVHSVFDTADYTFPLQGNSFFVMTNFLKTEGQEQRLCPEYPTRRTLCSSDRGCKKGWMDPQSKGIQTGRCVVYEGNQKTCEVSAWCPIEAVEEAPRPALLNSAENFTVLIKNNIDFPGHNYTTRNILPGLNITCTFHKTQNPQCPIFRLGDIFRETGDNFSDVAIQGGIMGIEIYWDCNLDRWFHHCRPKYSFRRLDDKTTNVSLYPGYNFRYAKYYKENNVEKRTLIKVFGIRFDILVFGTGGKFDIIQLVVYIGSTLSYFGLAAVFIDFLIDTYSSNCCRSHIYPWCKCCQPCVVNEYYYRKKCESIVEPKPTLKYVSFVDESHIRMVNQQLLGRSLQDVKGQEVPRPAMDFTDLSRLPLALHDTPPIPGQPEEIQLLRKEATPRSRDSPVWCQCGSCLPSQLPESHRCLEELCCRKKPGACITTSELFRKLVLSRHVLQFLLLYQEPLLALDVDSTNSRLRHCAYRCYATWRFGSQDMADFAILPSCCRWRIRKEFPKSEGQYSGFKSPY
Type: cell-based
How it was run: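 IC50 derived by four-parameter logistic fit of percent inhibition of IL-1β release (ELISA, background-adjusted). Release triggered by 45 min BzATP at 250 uM final after 30 min compound pretreatment of THP-1 cells previously differentiated 16 h (LPS, IFN-γ, 100 ng/mL each) and re-primed 2 h with LPS.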

| Compound | inhibition at 0.3 µM [%] |
| --- | --- |
| CC(C)C[C@H](CO)n1ccc2c(NC(=O)Cc3ccc(Cl)c(Cl)c3)cccc2c1=O [Compound 275] | > 76 |
| CC(C)C[C@H](CO)n1ccc2c(NC(=O)Cc3ccc(Cl)c(C(F)(F)F)c3)cccc2c1=O [Compound 280] | > 76 |
| C[C@H](C(N)=O)n1ccc2c(NC(=O)Cc3c(F)cccc3C(F)(F)F)cccc2c1=O [Compound 286] | 26 to 50 |
| C[C@H](C(N)=O)n1ccc2c(NC(=O)Cc3cccc(C#N)c3)cccc2c1=O [Compound 288] | 0 to 25 |
| C[C@H](C(N)=O)n1ccc2c(NC(=O)Cc3ccc(-c4ccccc4)cc3)cccc2c1=O [Compound 289] | > 76 |
| C[C@H](C(N)=O)n1ccc2c(NC(=O)Cc3ccc(F)cc3Cl)cccc2c1=O [Compound 291] | > 76 |
| C[C@H](C(N)=O)n1ccc2c(NC(=O)Cc3c(F)cccc3F)cccc2c1=O [Compound 292] | 0 to 25 |
| C[C@H](C(N)=O)n1ccc2c(NC(=O)Cc3ccc(F)cc3F)cccc2c1=O [Compound 293] | > 76 |
| C[C@H](C(N)=O)n1ccc2c(NC(=O)Cc3ccc(F)cc3C(F)(F)F)cccc2c1=O [Compound 295] | 51 to 75 |
| C[C@H](C(N)=O)n1ccc2c(NC(=O)Cc3ccc(C(F)(F)F)cc3F)cccc2c1=O [Compound 296] | > 76 |
| C[C@H](C(N)=O)n1ccc2c(NC(=O)Cc3cccc(C(F)(F)F)c3)cccc2c1=O [Compound 297] | > 76 |
| Cc1ccc(CC(=O)Nc2cccc3c(=O)n([C@H](C)C(N)=O)ccc23)cc1F [Compound 302] | > 76 |
| C[C@H](C(N)=O)n1ccc2c(NC(=O)Cc3cc(F)c(F)cc3F)cccc2c1=O [Compound 305] | > 76 |
| C[C@H](C(N)=O)n1ccc2c(NC(=O)Cc3ccccn3)cccc2c1=O [Compound 309] | 0 to 25 |
| C[C@@H](C(N)=O)n1ccc2c(NC(=O)Cc3ccc(Cl)nc3)cccc2c1=O [Compound 310] | 0 to 25 |
| C[C@H](C(N)=O)n1ccc2c(NC(=O)Cc3ccc(OC(F)(F)F)cc3)cccc2c1=O [Compound 311] | 51 to 75 |
| C[C@H](C(N)=O)n1ccc2c(NC(=O)Cc3ccc(Cl)nc3)cccc2c1=O [Compound 312] | 0 to 25 |
| C[C@H](C(N)=O)n1ccc2c(NC(=O)Cc3cccc(OC(F)(F)F)c3)cccc2c1=O [Compound 313] | 0 to 25 |
| C[C@@H](CO)n1ccc2c(NC(=O)Cc3ccc(C(F)(F)F)cc3)cccc2c1=O [Compound 318] | 51 to 75 |
| C[C@@H](CO)n1ccc2c(NC(=O)Cc3cccc(C(F)(F)F)c3F)cccc2c1=O [Compound 325] | > 76 |
| C[C@@H](CO)n1ccc2c(NC(=O)Cc3ccc(Cl)c(Cl)c3)cccc2c1=O [Compound 332] | > 76 |
| C[C@@H](CO)n1ccc2c(NC(=O)Cc3ccc(Cl)c(F)c3)cccc2c1=O [Compound 334] | 51 to 75 |
| C[C@@H](CO)n1ccc2c(NC(=O)Cc3ccc(C(F)(F)F)c(F)c3)cccc2c1=O [Compound 336] | > 76 |
| C[C@@H](CO)n1ccc2c(NC(=O)Cc3ccc(F)c(C(F)(F)F)c3)cccc2c1=O [Compound 338] | > 76 |
| O=C(Cc1ccc(F)c(Cl)c1)Nc1cccc2c(=O)n(CCO)ccc12 [Compound 341] | > 76 |
| C[C@H](C(N)=O)n1ccc2c(NC(=O)Cc3ccc(Cl)cc3F)c(Cl)ccc2c1=O [Compound 343] | 26 to 50 |
| COc1ccc2c(=O)n([C@H](C)C(N)=O)ccc2c1NC(=O)Cc1ccc(C(F)(F)F)cc1 [Compound 344, (R)-2-{6-Methoxy-1-oxo-5-[2-(4-trifluoromethyl-phenyl)-acetylamino]-1H-isoquinolin-2-yl}-propionamide] | > 76 |

Second part, the compound after the results:

| inhibition at 0.3 µM [%] | Compound |
| --- | --- |
| > 76 | CC(C)[C@H](CO)n1ccc2c(NC(=O)[C@@H](C)c3ccc(Cl)cc3)cccc2c1=O [Compound 274] |
| > 76 | CNC(=O)[C@@H](C(C)C)n1ccc2c(NC(=O)[C@@H](C)c3ccc(Cl)cc3)cccc2c1=O [Compound 276, (R)-2-{5-[(S)-2-(4-Chloro-phenyl)-propionylamino]-1-oxo-1H-isoquinolin-2-yl}-3,N-dimethyl-butyramide] |
| > 76 | CNC(=O)[C@@H](C(C)C)n1ccc2c(NC(=O)[C@H](C)c3ccc(Cl)cc3)cccc2c1=O [Compound 277] |
| > 76 | C[C@H](C(=O)Nc1cccc2c(=O)n([C@@H](C(N)=O)c3ccccc3)ccc12)c1ccc(Cl)c(Cl)c1 [Compound 278, (S)—N-[2-((R)-Carbamoyl-phenyl-methyl)-1-oxo-1,2-dihydro-isoquinolin-5-yl]-2-(3,4-dichloro-phenyl)-propionamide] |
| > 76 | C[C@H](C(=O)Nc1cccc2c(=O)n([C@@H](C(N)=O)c3ccccc3)ccc12)c1ccc(Cl)cc1 [Compound 279, (S)—N-[2-((R)-Carbamoyl-phenyl-methyl)-1-oxo-1,2-dihydro-isoquinolin-5-yl]-2-(4-chloro-phenyl)-propionamide] |
| > 76 | CC(C)[C@H](C(=O)NC1CC1)n1ccc2c(NC(=O)[C@@H](C)c3ccc(Cl)cc3)cccc2c1=O [Compound 281, (R)-2-{5-[(S)-2-(4-Chloro-phenyl)-propionylamino]-1-oxo-1H-isoquinolin-2-yl}-N-cyclopropyl-3-methyl-butyramide] |
| > 76 | CC(C)[C@H](C(=O)NC1CC1)n1ccc2c(NC(=O)[C@H](C)c3ccc(Cl)cc3)cccc2c1=O [Compound 282] |
| 26 to 50 | C[C@H](C(N)=O)n1ccc2c(NC(=O)Cc3ccc(C#N)cc3)cccc2c1=O [Compound 287] |
| 26 to 50 | C[C@H](C(N)=O)n1ccc2c(NC(=O)Cc3ccccc3F)cccc2c1=O [Compound 294] |
| > 76 | CC(C(=O)Nc1cccc2c(=O)n([C@H](C)C(N)=O)ccc12)c1ccc(F)cc1 (stereo partly drawn) [Compound 299] |
| > 76 | C[C@H](C(N)=O)n1ccc2c(NC(=O)Cc3ccc(F)c(F)c3)cccc2c1=O [Compound 303] |
| 51 to 75 | C[C@H](C(=O)Nc1cccc2c(=O)n([C@H](C)C(=O)NC3CC3)ccc12)c1ccc(Cl)cc1 [Compound 308, (R)-2-{5-[(S)-2-(4-Chloro-phenyl)-propionylamino]-1-oxo-1H-isoquinolin-2-yl}-N-cyclopropyl-propionamide] |
| > 76 | C[C@H](C(N)=O)n1ccc2c(NC(=O)Cc3ccc(Cl)cc3Cl)cccc2c1=O [Compound 314] |
| 51 to 75 | C[C@H](C(=O)Nc1cccc2c(=O)n(C(C(N)=O)c3ccc(Cl)cc3)ccc12)c1ccc(Cl)cc1 (stereo partly drawn) [Compound 315, (S)—N-{2-[Carbamoyl-(4-chloro-phenyl)-methyl]-1-oxo-1,2-dihydro-isoquinolin-5-yl}-2-(4-chloro-phenyl)-propionamide] |
| > 76 | C[C@@H](C(=O)Nc1cccc2c(=O)n([C@@H](C)CO)ccc12)c1ccc(Cl)c(Cl)c1 [Compound 317] |
| > 76 | C[C@H](C(=O)Nc1cccc2c(=O)n([C@H](C)CO)ccc12)c1ccc(Cl)c(Cl)c1 [Compound 321] |
| 26 to 50 | C[C@H](C(=O)Nc1cccc2c(=O)n([C@H](C)C(=O)O)ccc12)c1ccc(Cl)cc1 [Compound 322, (R)-2-{5-[(S)-2-(4-Chloro-phenyl)-propionylamino]-1-oxo-1H-isoquinolin-2-yl}-propionic acid] |
| 51 to 75 | CC(C)[C@H](C(=O)O)n1ccc2c(NC(=O)[C@@H](C)c3ccc(Cl)cc3)cccc2c1=O [Compound 323, (R)-2-{5-[(S)-2-(4-Chloro-phenyl)-propionylamino]-1-oxo-1H-isoquinolin-2-yl}-3-methyl-butyric acid] |
| 51 to 75 | C[C@H](C(=O)Nc1cccc2c(=O)n([C@@H](C)CO)ccc12)c1ccc(Cl)c(Cl)c1 [Compound 326] |
| > 76 | C[C@H](CO)n1ccc2c(NC(=O)Cc3ccc(Cl)cc3F)cccc2c1=O [Compound 327] |
| 51 to 75 | C[C@@H](CO)n1ccc2c(NC(=O)Cc3ccc(Cl)cc3F)cccc2c1=O [Compound 328] |
| 51 to 75 | C[C@H](CO)n1ccc2c(NC(=O)Cc3ccc(F)c(Cl)c3)cccc2c1=O [Compound 329] |
| 51 to 75 | C[C@@H](CO)n1ccc2c(NC(=O)Cc3ccc(F)c(Cl)c3)cccc2c1=O [Compound 331] |
| > 76 | C[C@H](C(=O)Nc1c(Cl)ccc2c(=O)n([C@H](C)C(N)=O)ccc12)c1ccc(Cl)cc1 [Compound 340] |

Same assay, conditions: THP-1, read-out: IL-1β % Inhib. @ 0.3 or 0.1 uM

| Compound | inhibition at 0.3 µM [%] |
| --- | --- |
| C[C@@H](C(N)=O)n1ccc2c(NC(=O)Cc3ccc(C(F)(F)F)cc3)c(Cl)ccc2c1=O [Compound 345, (S)-2-{6-Chloro-1-oxo-5-[2-(4-trifluoromethyl-phenyl)-acetylamino]-1H-isoquinolin-2-yl}-propionamide] | > 76 |

Same assay, conditions: THP-1 cells, BzATP 250 uM, IL-1β by ELISA

| IC50 [µM] | Compound |
| --- | --- |
| 0.0145 | CC(C)[C@H](CO)n1ccc2c(NC(=O)[C@@H](C)c3ccc(Cl)cc3)cccc2c1=O [Compound 274] |
| 0.15 | C[C@H](C(N)=O)n1ccc2c(NC(=O)Cc3ccc(OC(F)(F)F)cc3)cccc2c1=O [Compound 311] |
